Data on 20 compounds can be found in ChEMBL document CHEMBL1743201, “Casarett and Doull's Toxicology The Basic Science of Poisons, 7th edition” (2008).

What all share (format): ADME
Data set [1] has as its target T1, UDP-glucuronosyltransferase 2B15 (Homo sapiens, UniProt P54855).
T1 sequence (P54855 whole entry): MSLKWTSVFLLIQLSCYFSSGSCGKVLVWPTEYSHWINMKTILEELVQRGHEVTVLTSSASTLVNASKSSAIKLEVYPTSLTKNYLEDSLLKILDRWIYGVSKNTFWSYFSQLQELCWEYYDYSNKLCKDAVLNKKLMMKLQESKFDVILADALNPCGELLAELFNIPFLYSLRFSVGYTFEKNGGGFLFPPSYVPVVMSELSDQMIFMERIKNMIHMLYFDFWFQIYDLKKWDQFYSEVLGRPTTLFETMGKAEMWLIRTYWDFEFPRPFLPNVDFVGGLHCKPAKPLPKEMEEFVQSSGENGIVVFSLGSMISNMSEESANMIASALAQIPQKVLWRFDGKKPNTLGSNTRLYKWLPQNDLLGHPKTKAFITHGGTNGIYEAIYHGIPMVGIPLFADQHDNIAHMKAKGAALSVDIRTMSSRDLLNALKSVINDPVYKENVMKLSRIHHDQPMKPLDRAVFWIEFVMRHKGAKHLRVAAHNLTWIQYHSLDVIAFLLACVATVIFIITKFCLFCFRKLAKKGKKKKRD
Put plainly: Substrate of human UDP-glucuronosyltransferase UGT2B15.

The target of data set [2] is T2, Glutathione S-transferase Mu 1 (Homo sapiens, UniProt P09488).
T2 sequence (P09488 whole entry): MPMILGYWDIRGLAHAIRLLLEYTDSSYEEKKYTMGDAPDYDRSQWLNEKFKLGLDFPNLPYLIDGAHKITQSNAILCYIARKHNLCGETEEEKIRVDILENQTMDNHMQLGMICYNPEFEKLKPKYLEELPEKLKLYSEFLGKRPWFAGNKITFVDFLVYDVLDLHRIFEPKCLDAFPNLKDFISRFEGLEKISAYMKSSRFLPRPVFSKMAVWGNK
Put plainly: Substrates for human cytosolic glutathione transferase GSTM1.

The target of data set [3] is Glutathione S-transferase P (Homo sapiens, UniProt P09211). Put plainly: Substrates for human cytosolic glutathione transferase GSTP1.
Chain of Glutathione S-transferase P (P09211 whole entry): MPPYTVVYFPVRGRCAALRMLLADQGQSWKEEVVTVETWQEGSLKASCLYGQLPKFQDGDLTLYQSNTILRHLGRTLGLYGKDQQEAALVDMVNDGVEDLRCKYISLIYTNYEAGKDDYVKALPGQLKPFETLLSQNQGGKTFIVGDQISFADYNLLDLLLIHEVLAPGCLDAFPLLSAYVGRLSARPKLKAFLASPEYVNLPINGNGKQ
The target of data set [4] is T3, Glutathione S-transferase Mu 2 (Homo sapiens, UniProt P28161).
T3 sequence (P28161 whole entry): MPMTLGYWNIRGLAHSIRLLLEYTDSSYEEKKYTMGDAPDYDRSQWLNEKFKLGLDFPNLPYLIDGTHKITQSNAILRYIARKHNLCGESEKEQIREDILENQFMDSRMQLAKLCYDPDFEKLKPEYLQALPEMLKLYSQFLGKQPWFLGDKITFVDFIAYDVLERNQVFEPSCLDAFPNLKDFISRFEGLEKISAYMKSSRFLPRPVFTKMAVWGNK
Put plainly: Substrates for human cytosolic glutathione transferase GSTM2.

The target of data set [5] is T4, Glutathione S-transferase theta-1 (Homo sapiens, UniProt P30711).
T4 sequence (P30711 whole entry): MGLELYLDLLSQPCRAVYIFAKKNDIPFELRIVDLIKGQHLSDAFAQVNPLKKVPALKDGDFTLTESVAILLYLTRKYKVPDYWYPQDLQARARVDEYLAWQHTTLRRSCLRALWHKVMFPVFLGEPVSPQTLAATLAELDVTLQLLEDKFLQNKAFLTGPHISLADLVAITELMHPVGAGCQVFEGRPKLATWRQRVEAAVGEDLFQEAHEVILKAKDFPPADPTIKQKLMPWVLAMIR
Put plainly: Substrates for human cytosolic glutathione transferase GSTT1.

The next data set deals with Cytochrome P450 2C9 (Homo sapiens, UniProt P11712). Kind of data set: Clinically relevant substrates of human liver microsomal P450 enzymes, isoform CYP2C9. The following applies: microsomes. For orientation: Liver microsomes are a subcellular fraction often used to study metabolism.
Chain of Cytochrome P450 2C9 (P11712 whole entry, canonical isoform): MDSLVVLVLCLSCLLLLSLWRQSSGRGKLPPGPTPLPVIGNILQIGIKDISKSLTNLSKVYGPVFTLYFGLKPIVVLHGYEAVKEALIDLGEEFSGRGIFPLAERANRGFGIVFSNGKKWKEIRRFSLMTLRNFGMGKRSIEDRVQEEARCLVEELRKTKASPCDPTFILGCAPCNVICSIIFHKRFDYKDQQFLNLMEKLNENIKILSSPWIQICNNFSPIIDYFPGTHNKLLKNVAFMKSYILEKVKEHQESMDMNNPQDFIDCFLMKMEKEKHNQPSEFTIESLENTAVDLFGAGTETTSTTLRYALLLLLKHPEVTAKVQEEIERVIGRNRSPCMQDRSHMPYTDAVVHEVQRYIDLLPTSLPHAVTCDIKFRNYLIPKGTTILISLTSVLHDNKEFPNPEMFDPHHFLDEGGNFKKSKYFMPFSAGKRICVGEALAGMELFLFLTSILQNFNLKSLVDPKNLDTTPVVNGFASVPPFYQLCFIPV
The target of data set [6] is T5, UDP-glucuronosyltransferase 1A10 (Homo sapiens, UniProt Q9HAW8).
T5 sequence (Q9HAW8 whole entry): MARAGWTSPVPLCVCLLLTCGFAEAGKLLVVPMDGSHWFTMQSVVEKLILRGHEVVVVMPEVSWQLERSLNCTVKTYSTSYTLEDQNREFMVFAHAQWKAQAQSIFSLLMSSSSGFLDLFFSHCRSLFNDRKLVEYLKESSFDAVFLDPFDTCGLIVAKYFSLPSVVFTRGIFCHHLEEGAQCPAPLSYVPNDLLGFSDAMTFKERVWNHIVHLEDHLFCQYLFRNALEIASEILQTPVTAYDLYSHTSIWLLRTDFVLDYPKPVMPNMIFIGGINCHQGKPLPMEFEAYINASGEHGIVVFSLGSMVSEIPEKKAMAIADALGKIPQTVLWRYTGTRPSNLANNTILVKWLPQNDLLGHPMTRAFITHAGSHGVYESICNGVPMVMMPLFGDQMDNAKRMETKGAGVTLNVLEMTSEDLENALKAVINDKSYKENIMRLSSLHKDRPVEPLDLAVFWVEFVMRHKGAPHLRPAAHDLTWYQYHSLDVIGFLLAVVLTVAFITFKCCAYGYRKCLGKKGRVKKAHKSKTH
Put plainly: Substrate of human UDP-glucuronosyltransferase UGT1A10.

For data set [7], the target named is T6, UDP-glucuronosyltransferase 1A1 (Homo sapiens, UniProt P22309).
T6 sequence (P22309 whole entry): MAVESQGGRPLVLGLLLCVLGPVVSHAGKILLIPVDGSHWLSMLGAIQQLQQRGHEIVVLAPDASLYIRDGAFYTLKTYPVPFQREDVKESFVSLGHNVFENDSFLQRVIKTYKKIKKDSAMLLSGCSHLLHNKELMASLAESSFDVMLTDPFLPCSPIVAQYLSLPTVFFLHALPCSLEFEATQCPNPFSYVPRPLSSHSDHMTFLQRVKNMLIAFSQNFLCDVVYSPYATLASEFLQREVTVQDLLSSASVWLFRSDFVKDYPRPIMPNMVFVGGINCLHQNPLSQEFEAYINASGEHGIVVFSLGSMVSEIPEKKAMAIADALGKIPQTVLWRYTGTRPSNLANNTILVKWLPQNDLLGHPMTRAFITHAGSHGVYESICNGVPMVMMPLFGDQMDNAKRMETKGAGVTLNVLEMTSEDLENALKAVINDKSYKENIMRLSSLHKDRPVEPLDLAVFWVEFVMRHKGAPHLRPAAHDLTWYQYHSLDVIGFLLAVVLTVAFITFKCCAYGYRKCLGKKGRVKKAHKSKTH
Kind of data set: Substrate of human UDP-glucuronosyltransferase UGT1A1.

Data set [8] concerns the target T7, UDP-glucuronosyltransferase 1A8 (Homo sapiens, UniProt Q9HAW9).
T7 sequence (Q9HAW9 whole entry): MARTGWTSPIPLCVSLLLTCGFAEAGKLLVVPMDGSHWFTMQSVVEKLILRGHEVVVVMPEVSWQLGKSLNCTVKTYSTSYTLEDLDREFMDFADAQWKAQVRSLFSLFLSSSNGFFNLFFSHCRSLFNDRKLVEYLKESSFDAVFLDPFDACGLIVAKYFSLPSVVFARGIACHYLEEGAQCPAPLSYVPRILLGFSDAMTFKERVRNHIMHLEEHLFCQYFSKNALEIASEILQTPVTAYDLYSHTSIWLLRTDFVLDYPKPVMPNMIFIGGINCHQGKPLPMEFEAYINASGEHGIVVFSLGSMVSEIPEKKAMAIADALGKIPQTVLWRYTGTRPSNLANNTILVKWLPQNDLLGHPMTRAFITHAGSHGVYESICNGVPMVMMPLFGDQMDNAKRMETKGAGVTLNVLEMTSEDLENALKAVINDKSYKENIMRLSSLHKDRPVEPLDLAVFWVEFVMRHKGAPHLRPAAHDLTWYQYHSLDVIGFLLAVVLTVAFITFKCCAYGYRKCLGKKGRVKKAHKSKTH
Kind of data set: Substrate of human UDP-glucuronosyltransferase UGT1A8.

For data set [9], the target named is T8, UDP-glucuronosyltransferase 1A9 (Homo sapiens, UniProt O60656).
T8 sequence (O60656 whole entry): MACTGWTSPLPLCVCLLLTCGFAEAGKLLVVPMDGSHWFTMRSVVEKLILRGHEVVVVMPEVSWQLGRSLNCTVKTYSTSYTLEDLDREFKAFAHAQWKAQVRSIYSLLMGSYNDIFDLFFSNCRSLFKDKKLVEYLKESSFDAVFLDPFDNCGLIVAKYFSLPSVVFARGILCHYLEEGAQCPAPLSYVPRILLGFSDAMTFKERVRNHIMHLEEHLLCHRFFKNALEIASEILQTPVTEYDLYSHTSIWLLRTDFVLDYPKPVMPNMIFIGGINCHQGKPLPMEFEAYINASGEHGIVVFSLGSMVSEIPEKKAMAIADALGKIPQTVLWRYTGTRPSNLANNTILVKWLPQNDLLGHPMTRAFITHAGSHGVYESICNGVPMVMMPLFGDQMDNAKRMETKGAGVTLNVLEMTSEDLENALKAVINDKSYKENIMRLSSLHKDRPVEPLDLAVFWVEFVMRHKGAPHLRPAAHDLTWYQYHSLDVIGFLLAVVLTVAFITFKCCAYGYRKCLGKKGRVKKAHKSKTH
Kind of data set: Substrate of human UDP-glucuronosyltransferase UGT1A9.

The target in data set [10] is T9, Glutathione S-transferase A1 (Homo sapiens, UniProt P08263).
T9 sequence (P08263 whole entry): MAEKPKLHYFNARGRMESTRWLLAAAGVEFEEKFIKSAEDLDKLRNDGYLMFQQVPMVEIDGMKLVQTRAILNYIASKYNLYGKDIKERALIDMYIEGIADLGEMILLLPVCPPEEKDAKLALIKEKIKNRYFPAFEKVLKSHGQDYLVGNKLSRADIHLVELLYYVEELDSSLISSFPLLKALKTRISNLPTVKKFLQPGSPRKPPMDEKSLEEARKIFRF
Kind of data set: Substrates for human cytosolic glutathione transferase GSTA1.

Data set [11] has as its target T10, UDP-glucuronosyltransferase 1A6 (Homo sapiens, UniProt P19224).
T10 sequence (P19224 whole entry): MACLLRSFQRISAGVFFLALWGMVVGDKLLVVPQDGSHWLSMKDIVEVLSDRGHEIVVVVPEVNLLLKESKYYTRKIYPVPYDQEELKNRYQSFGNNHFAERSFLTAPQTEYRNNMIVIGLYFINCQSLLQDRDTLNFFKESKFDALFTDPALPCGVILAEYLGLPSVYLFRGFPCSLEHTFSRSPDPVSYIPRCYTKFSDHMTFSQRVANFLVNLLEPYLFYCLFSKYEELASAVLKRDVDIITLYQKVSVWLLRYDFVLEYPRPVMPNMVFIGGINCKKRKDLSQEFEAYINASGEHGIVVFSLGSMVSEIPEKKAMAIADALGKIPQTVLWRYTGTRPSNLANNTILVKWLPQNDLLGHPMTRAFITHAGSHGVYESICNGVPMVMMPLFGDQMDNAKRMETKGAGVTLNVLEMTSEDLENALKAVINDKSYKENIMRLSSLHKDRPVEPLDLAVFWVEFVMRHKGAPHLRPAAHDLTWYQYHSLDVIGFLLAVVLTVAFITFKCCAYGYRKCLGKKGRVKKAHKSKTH
Put plainly: Substrate of human UDP-glucuronosyltransferase UGT1A6.

The target in the next data set is T11, Sulfotransferase 1E1 (Homo sapiens, UniProt P49888).
T11 sequence (P49888 whole entry): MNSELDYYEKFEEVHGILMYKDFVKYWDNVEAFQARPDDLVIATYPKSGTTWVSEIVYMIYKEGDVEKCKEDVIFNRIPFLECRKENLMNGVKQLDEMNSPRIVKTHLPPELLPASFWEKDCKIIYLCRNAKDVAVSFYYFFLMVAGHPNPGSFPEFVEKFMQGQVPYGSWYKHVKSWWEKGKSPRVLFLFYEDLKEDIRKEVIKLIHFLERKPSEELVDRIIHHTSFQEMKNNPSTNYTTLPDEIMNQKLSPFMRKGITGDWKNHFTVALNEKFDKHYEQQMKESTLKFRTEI
Put plainly: Major substrate of human cytosolic sulfotransferase SULT1E1.

SMILES strings stand for the structures.

As to `CCC(=C(c1ccc(O)cc1)c1ccc(OCCN(C)C)cc1)c1ccccc1`, the Activity entry in [1] is reported as “Substrate”.
For the compound `OC1c2ccc3c(ccc4ccccc43)c2C2OC2C1O` (configuration not stated), the Activity result in data set [2] and in data set [3] was “Substrate” in each case.
Take `c1ccc([C@H]2O[C@@H]2c2ccccc2)cc1` (relative stereo): in data set [2], the Activity result is recorded as “Substrate”.
In the case of `O=[N+]([O-])c1ccc(Cl)c(Cl)c1`, the Activity result in [4] is “Substrate”.
Consider `ClCCl` [METHYLENE CHLORIDE], for which the Activity result in data set [5] is given as “Substrate”.
`O=C1C=C2CCNC2=CC1=O` [AMINOCHROME]: the Activity entry in data set [4] is listed as “Substrate”.
Regarding `CC(=O)C[C@@H](c1ccccc1)c1c(O)c2ccccc2oc1=O`, at Cytochrome P450 2C9, the Activity result is “Substrate”.
Still for that read-out and setting: then `CC(C(=O)O)c1ccc(-c2ccccc2)c(F)c1` (configuration not stated) [FLURBIPROFEN], with “Substrate”.
With `O=C(c1ccc(OCCN2CCCCC2)cc1)c1c(-c2ccc(O)cc2)sc2cc(O)ccc12` [RALOXIFENE], the Activity entry in data set [6], in [7] and in data set [8] was “Substrate” throughout.
Take `CCN(CC)C(=O)/C(C#N)=C/c1cc(O)c(O)c([N+](=O)[O-])c1` [ENTACAPONE]: the Activity entry in data set [1], in data set [9] and in data set [8] was “Substrate” each time.
Take `NC(CC1=CC(=O)C(=O)C=C1)C(=O)O` (configuration not stated): in [4], the Activity entry was “Substrate”.
Consider `OC1c2cc3ccc4cccc5ccc(c2C2OC2C1O)c3c45` (configuration not stated) [BENZO[A]PYRENE DIOL EPOXIDE], for which the Activity result in [2], in [3] and in data set [10] was “Substrate” throughout.
With `Oc1cccc2ccccc12` [1-NAPHTHOL], the Activity entry (in [6]; in [11]; on Sulfotransferase 1E1) was “Substrate” each time.
As to `OC1c2c(ccc3cc4c(ccc5ccccc54)cc23)C2OC2C1O` (configuration not stated) [DIBENZ[A,H]ANTHRACENE DIOL EPOXIDE], the Activity entry in data set [2] and in data set [10] was “Substrate” each time.
On to `NS(=O)(=O)c1cc(C(=O)O)c(NCc2ccco2)cc1Cl` [FUROSEMIDE], for which the Activity result in [6], in [9] and in data set [8] was “Substrate” in each case.
Take `Cc1ccc(C(=O)c2cc(O)c(O)c([N+](=O)[O-])c2)cc1` [TOLCAPONE]: the Activity entry in [1] is given as “Substrate”.
`c1ccc(C2CO2)cc1` (configuration not stated): in data set [2], the Activity entry was “Substrate”.
As to `O=[N+]([O-])c1ccc(OCC2CO2)cc1` (configuration not stated), in data set [5], the Activity result was “Substrate”.
Still for that read-out and setting: for `C=CC1CO1` (configuration not stated) [BUTADIENE EPOXIDE] the value was “Substrate”; for `C1CO1` [OXIRANE], “Substrate”.
